*1 amine or outer side, *2 acyl side, *3 side chain or, on linkers, in order; H or OH if unused. Where a SMILES comes first, the peptide text is derived from it. Bridges are numbered along the chain shown (N, C = ends). [ ]: non-standard residue; d: D form. The star is where a group is joined. ξ: configuration not given here. Bip = N[C@@H](Cc1ccc(-c2ccccc2)cc1)C(=O)O; Phe(3-Me) = Cc1cccc(C[C@H](N)C(=O)O)c1; γGlu = O=C(O)[C@H](CCC(=O)[*:2])N[*:1]; aIle = CC[C@@H](C)[C@H](N)C(=O)O; hArg = N=C(N)NCCCC[C@H](N)C(=O)O; 4Pal = N[C@@H](Cc1ccncc1)C(=O)O; Cha = N[C@@H](CC1CCCCC1)C(=O)O; Ile(3ξ) = CCC(C)[C@H](N)C(=O)O; Thr(3ξ) = CC(O)[C@H](N)C(=O)O; 12Ado = NCCCCCCCCCCCC(=O)O; Carboxymethyl = O=C(O)C*; NMeA = CN[C@@H](C)C(=O)O; Orn = NCCC[C@H](N)C(=O)O; dDap = NC[C@@H](N)C(=O)O; Aun = NCCCCCCCCCCC(=O)O; Dab = NCC[C@H](N)C(=O)O; AEEA = NCCOCCOCC(=O)O
The compounds below were run against T1, PD-1/PD-L1 interaction (PE-labeled human PD-L1-Ig binding to Jurkat cell line over-expressing human PD-1) (Homo sapiens, UniProt Q15116) (assay: Jurkat-PD-1 Cell Binding High-Content Screening Assay (CBA)). Details: Jurkat-hPD-1 cells, PE-labeled PD-L1-Ig 20 nM final; read-out: Jurkat HPD1 PDL1 IC50.
T1 construct: expressed in transfected cells; host or cells: Jurkat
Outline: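 Read-out: high-content imaging of cell-bound PE fluorescence, with Hoechst 33342 nuclear counterstain after paraformaldehyde fixation. Before labeled ligand (20 nM final, 1 h) was added, compound sat on the cells for 2 h at 37 °C in DMEM/10% FCS.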

T1 sequence (Q15116 25-288): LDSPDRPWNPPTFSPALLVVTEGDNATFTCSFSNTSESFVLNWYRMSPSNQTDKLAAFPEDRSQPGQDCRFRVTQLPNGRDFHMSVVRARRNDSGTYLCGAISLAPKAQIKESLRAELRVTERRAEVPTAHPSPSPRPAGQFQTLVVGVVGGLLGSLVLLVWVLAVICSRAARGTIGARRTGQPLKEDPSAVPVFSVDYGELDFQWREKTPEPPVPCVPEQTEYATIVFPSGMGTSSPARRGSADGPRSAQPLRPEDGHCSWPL

Row | SMILES | IC50 [µM]
1 | CC(C)C[C@@H]1NC(=O)[C@H](Cc2c[nH]c3ccccc23)NC(=O)[C@H](CC(=O)O)NC(=O)[C@H](Cc2ccc(O)cc2)NC(=O)[C@H](Cc2ccccc2)NC(=O)CSC[C@@H](C(=O)N[C@@H](C)C(=O)N[C@H](CCCCN)C(=O)NCCCCCCCCCCC(=O)O)NC(=O)[C@H](CO)NC(=O)[C@H](C(C)C)NC(=O)[C@H](CC(C)C)NC(=O)[C@H](CCN)NC(=O)[C@@H](CC(C)C)NC(=O)[C@H](C)N(C)C(=O)[C@H](C(C)C)NC(=O)[C@H](Cc2ccc(-c3ccccc3)cc2)NC1=O [Example 2035] ({CH2CO}-FYDWL[Bip]V[NMeA][dL][Dab]LVSCA[dK][Aun]-OH; thioether N-14) | 0.0219
2 | CC[C@@H](C)[C@@H]1NC(=O)[C@H](Cc2ccc(-c3ccccc3)cc2)NC(=O)[C@H](C(C)C)NC(=O)[C@H](Cc2c[nH]c3ccccc23)NC(=O)[C@H](CC(=O)O)NC(=O)[C@H](Cc2ccc(O)cc2)NC(=O)[C@H](Cc2ccncc2)NC(=O)CSC[C@@H](C(=O)N[C@@H](CCN)C(=O)NCCCCCCCCCCC(=O)O)NC(=O)[C@H](C(C)O)NC(=O)[C@H](C(C)C)NC(=O)[C@H](CC2CCCCC2)NC(=O)[C@H](CCN)NC(=O)[C@@H](CC(C)C)NC(=O)[C@H](C)N(C)C1=O (stereo partly drawn) [Example 2036] ({CH2CO}-[4Pal]YDWV[Bip][aIle][NMeA][dL][Dab][Cha]V[Thr(3ξ)]C[Dab][Aun]-OH; thioether N-14) | 0.0439
3 | CC(C)C[C@@H]1NC(=O)[C@H](Cc2c[nH]c3ccccc23)NC(=O)[C@H](CC(=O)O)NC(=O)[C@H](Cc2ccc(OCC(=O)O)cc2)NC(=O)[C@H](Cc2ccccc2)NC(=O)CSC[C@@H](C(=O)N[C@H](CN)C(=O)NCCOCCOCC(=O)NCCCCCCCCCCC(=O)O)NC(=O)[C@H](Cc2c[nH]cn2)NC(=O)[C@H](C(C)C)NC(=O)[C@H](CC(C)C)NC(=O)[C@H](CCN)NC(=O)[C@@H](CC(C)C)NC(=O)[C@H](C)N(C)C(=O)[C@H](C(C)C)NC(=O)[C@H](Cc2ccc(-c3ccccc3)cc2)NC1=O [Example 2037] ({CH2CO}-FY(Carboxymethyl)DWL[Bip]V[NMeA][dL][Dab]LVHC[dDap][AEEA][Aun]-OH; thioether N-14) | 0.029
4 | CCC(C)[C@@H]1NC(=O)[C@H](Cc2ccc(-c3ccccc3)cc2)NC(=O)[C@H](CC(C)C)NC(=O)[C@H](Cc2c[nH]c3ccccc23)NC(=O)[C@H](CC(=O)O)NC(=O)[C@H](Cc2ccc(OCC(=O)O)cc2)NC(=O)[C@H](Cc2ccc(OCC(=O)O)cc2)NC(=O)CSC[C@@H](C(=O)N[C@@H](CCN)C(=O)NCCOCCOCC(=O)NCCCCCCCCCCC(=O)O)NC(=O)[C@H](CO)NC(=O)[C@H](C(C)C)NC(=O)[C@H](CC(C)C)NC(=O)[C@H](CC(N)=O)NC(=O)[C@@H](CC(C)C)NC(=O)[C@H](C)N(C)C1=O (stereo partly drawn) [Example 2038] ({CH2CO}-Y(Carboxymethyl)Y(Carboxymethyl)DWL[Bip][Ile(3ξ)][NMeA][dL]NLVSC[Dab][AEEA][Aun]-OH; thioether N-14) | 0.0296
5 | CC(C)C[C@@H]1NC(=O)[C@H](Cc2c[nH]c3ccccc23)NC(=O)[C@H](CC(=O)O)NC(=O)[C@H](Cc2ccc(OCC(=O)O)cc2)NC(=O)[C@H](Cc2ccc(OCC(=O)O)cc2)NC(=O)CSC[C@@H](C(=O)N[C@@H](CCN)C(=O)NCCOCCOCC(=O)NCCCCCCCCCCC(=O)O)NC(=O)[C@H](CO)NC(=O)[C@H](C(C)C)NC(=O)[C@H](CC(C)C)NC(=O)[C@H](CCN)NC(=O)[C@@H](CC(C)C)NC(=O)[C@H](C)N(C)C(=O)[C@H](C(C)C)NC(=O)[C@H](Cc2ccc(-c3ccccc3)cc2)NC1=O [Example 2039] ({CH2CO}-Y(Carboxymethyl)Y(Carboxymethyl)DWL[Bip]V[NMeA][dL][Dab]LVSC[Dab][AEEA][Aun]-OH; thioether N-14) | 0.879
6 | CCC(C)[C@@H]1NC(=O)[C@H](Cc2ccc(-c3ccccc3)cc2)NC(=O)[C@H](CC(C)C)NC(=O)[C@H](Cc2c[nH]c3ccccc23)NC(=O)[C@H](CC(=O)O)NC(=O)[C@H](Cc2ccc(OCC(=O)O)cc2)NC(=O)[C@H](Cc2ccncc2)NC(=O)CSC[C@@H](C(=O)N[C@@H](CCCN)C(=O)NCCOCCOCC(=O)NCCCCCCCCCCC(=O)O)NC(=O)[C@H](C(C)O)NC(=O)[C@H](C(C)C)NC(=O)[C@H](CC2CCCCC2)NC(=O)[C@H](CCN)NC(=O)[C@@H](CC(C)C)NC(=O)[C@H](C)N(C)C1=O (stereo partly drawn) [Example 2040] ({CH2CO}-[4Pal]Y(Carboxymethyl)DWL[Bip][Ile(3ξ)][NMeA][dL][Dab][Cha]V[Thr(3ξ)]C[Orn][AEEA][Aun]-OH; thioether N-14) | 0.0087
7 | CCC(C)[C@@H]1NC(=O)[C@H](Cc2ccc(-c3ccccc3)cc2)NC(=O)[C@H](CC(C)C)NC(=O)[C@H](Cc2cccc(C)c2)NC(=O)[C@H](CC(=O)O)NC(=O)[C@H](Cc2ccc(OCC(=O)O)cc2)NC(=O)[C@H](Cc2ccc(OCC(=O)O)cc2)NC(=O)CSC[C@@H](C(=O)NCCOCCOCC(=O)N[C@@H](CCC(=O)NCCCCCCCCCCC(=O)O)C(=O)O)NC(=O)[C@H](CO)NC(=O)[C@H](C(C)C)NC(=O)[C@H](CC(C)C)NC(=O)[C@H](CCN)NC(=O)[C@@H](CC(C)C)NC(=O)[C@H](C)N(C)C1=O (stereo partly drawn) [Example 2043] ({CH2CO}-Y(Carboxymethyl)Y(Carboxymethyl)D[Phe(3-Me)]L[Bip][Ile(3ξ)][NMeA][dL][Dab]LVSC[AEEA][γGlu][Aun]-OH; thioether N-14) | 0.0174
8 | CCC(C)[C@@H]1NC(=O)[C@H](Cc2ccc(-c3ccccc3)cc2)NC(=O)[C@H](CC(C)C)NC(=O)[C@H](Cc2c[nH]c3ccccc23)NC(=O)[C@H](CC(=O)O)NC(=O)[C@H](Cc2ccc(OCC(=O)O)cc2)NC(=O)[C@H](CCCCNC(=N)N)NC(=O)CSC[C@@H](C(=O)NCCOCCOCC(=O)N[C@@H](CCC(=O)NCCCCCCCCCCC(=O)O)C(=O)O)NC(=O)[C@H](CO)NC(=O)[C@H](C(C)C)NC(=O)[C@H](CC(C)C)NC(=O)[C@H](CCN)NC(=O)[C@@H](CC(C)C)NC(=O)[C@H](C)N(C)C1=O (stereo partly drawn) [Example 2044] ({CH2CO}-[hArg]Y(Carboxymethyl)DWL[Bip][Ile(3ξ)][NMeA][dL][Dab]LVSC[AEEA][γGlu][Aun]-OH; thioether N-14) | 0.067
9 | CCC(C)[C@@H]1NC(=O)[C@H](Cc2ccc(-c3ccccc3)cc2)NC(=O)[C@H](CC(C)C)NC(=O)[C@H](Cc2c[nH]c3ccccc23)NC(=O)[C@H](CC(=O)O)NC(=O)[C@H](Cc2ccc(OCC(=O)O)cc2)NC(=O)[C@H](Cc2ccncc2)NC(=O)CSC[C@@H](C(=O)NCCOCCOCC(=O)N[C@@H](CCC(=O)NCCCCCCCCCCC(=O)O)C(=O)O)NC(=O)[C@H](CO)NC(=O)[C@H](C(C)C)NC(=O)[C@H](CC2CCCCC2)NC(=O)[C@H](CCN)NC(=O)[C@@H](CC(C)C)NC(=O)[C@H](C)N(C)C1=O (stereo partly drawn) [Example 2045] ({CH2CO}-[4Pal]Y(Carboxymethyl)DWL[Bip][Ile(3ξ)][NMeA][dL][Dab][Cha]VSC[AEEA][γGlu][Aun]-OH; thioether N-14) | 0.0269
10 | CCC(C)[C@@H]1NC(=O)[C@H](Cc2ccc(-c3ccccc3)cc2)NC(=O)[C@H](C(C)C)NC(=O)[C@H](Cc2c[nH]c3ccccc23)NC(=O)[C@H](CC(=O)O)NC(=O)[C@H](Cc2ccc(OCC(=O)O)cc2)NC(=O)[C@H](C(C)O)NC(=O)CSC[C@@H](C(=O)N[C@@H](CCCN)C(=O)N[C@@H](CCC(=O)NCCCCCCCCCCCC(=O)O)C(=O)O)NC(=O)[C@H](CO)NC(=O)[C@H](C(C)C)NC(=O)[C@H](CC2CCCCC2)NC(=O)[C@H](CCN)NC(=O)[C@@H](CC(C)C)NC(=O)[C@H](C)N(C)C1=O (stereo partly drawn) [Example 2047] ({CH2CO}-[Thr(3ξ)]Y(Carboxymethyl)DWV[Bip][Ile(3ξ)][NMeA][dL][Dab][Cha]VSC[Orn][γGlu][12Ado]-OH; thioether N-14) | 0.0358
11 | CCC(C)[C@@H]1NC(=O)[C@H](Cc2ccc(-c3ccccc3)cc2)NC(=O)[C@H](C(C)C)NC(=O)[C@H](Cc2c[nH]c3ccccc23)NC(=O)[C@H](CC(=O)O)NC(=O)[C@H](Cc2ccc(O)cc2)NC(=O)[C@H](C(C)O)NC(=O)CSC[C@@H](C(=O)N[C@@H](CC(N)=O)C(=O)NCCOCCOCC(=O)NCCCCCCCCCCC(=O)O)NC(=O)[C@H](CO)NC(=O)[C@H](C(C)C)NC(=O)[C@H](CC(C)C)NC(=O)[C@H](CCN)NC(=O)[C@@H](CC(C)C)NC(=O)[C@H](C)N(C)C1=O (stereo partly drawn) [Example 2050] ({CH2CO}-[Thr(3ξ)]YDWV[Bip][Ile(3ξ)][NMeA][dL][Dab]LVSCN[AEEA][Aun]-OH; thioether N-14) | 0.0258
12 | CCC(C)[C@@H]1NC(=O)[C@H](Cc2ccc(-c3ccccc3)cc2)NC(=O)[C@H](C(C)C)NC(=O)[C@H](Cc2c[nH]c3ccccc23)NC(=O)[C@H](CC(=O)O)NC(=O)[C@H](Cc2ccc(OCC(=O)O)cc2)NC(=O)[C@H](C(C)O)NC(=O)CSC[C@@H](C(=O)N[C@H](CC(N)=O)C(=O)NCCOCCOCC(=O)N[C@@H](CCC(=O)N[C@@H](CCCN)C(=O)NCCCCCCCCCCC(=O)O)C(=O)O)NC(=O)[C@H](CO)NC(=O)[C@H](C(C)C)NC(=O)[C@H](CC(C)C)NC(=O)[C@H](CCN)NC(=O)[C@@H](CC(C)C)NC(=O)[C@H](C)N(C)C1=O (stereo partly drawn) [Example 2051] ({CH2CO}-[Thr(3ξ)]Y(Carboxymethyl)DWV[Bip][Ile(3ξ)][NMeA][dL][Dab]LVSC[dN][AEEA][γGlu][Orn][Aun]-OH; thioether N-14) | 0.109
13 | CCC(C)[C@@H]1NC(=O)[C@H](Cc2ccc(-c3ccccc3)cc2)NC(=O)[C@H](CC(C)C)NC(=O)[C@H](Cc2c[nH]c3ccccc23)NC(=O)[C@H](CC(=O)O)NC(=O)[C@H](Cc2ccc(OCC(=O)O)cc2)NC(=O)[C@H](C(C)O)NC(=O)CSC[C@@H](C(=O)NCCOCCOCC(=O)N[C@@H](CCCN)C(=O)NCCCCCCCCCCC(=O)O)NC(=O)[C@H](CO)NC(=O)[C@H](C(C)C)NC(=O)[C@H](CC(C)C)NC(=O)[C@H](CC(N)=O)NC(=O)[C@@H](CC(C)C)NC(=O)[C@H](C)N(C)C1=O (stereo partly drawn) [Example 2052] ({CH2CO}-[Thr(3ξ)]Y(Carboxymethyl)DWL[Bip][Ile(3ξ)][NMeA][dL]NLVSC[AEEA][Orn][Aun]-OH; thioether N-14) | 0.0791
